Results published in patent US20230114728A1 (Venatorx Pharmaceuticals, Inc., priority 2019, published 2023).
≈ marks a conversion by molar mass, not a printed value.

How the values were obtained:
[1] = tested on: K. pneumoniae 848844 producing SHV-11 and KPC-2; assay: Broth microdilution MIC in CAMHB; type: cell-based; details: Klebsiella pneumoniae, read-out: Minimum Inhibitory Concentration, K. pneumoniae 848844
How it was run: (§1)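 Hyper-permeable or efflux-deficient strains serve to probe outer-membrane penetration. Growth inhibition is scored visually after 16-20 h at 37° C in CAMHB, starting from 2-8×10^5 CFU/mL.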

E. coli D22 = assay: Broth microdilution MIC in CAMHB; type: cell-based; details: Escherichia coli; E. coli D22 (hyper-permeable); MHB; read-out: Minimum Inhibitory Concentration, E. coli D22
How it was run: as §1

P. aeruginosa ATCC 35151 = assay: Broth microdilution MIC in CAMHB; type: cell-based; details: Pseudomonas aeruginosa, ATCC35151; MHB; hyper-permeable strain; read-out: Minimum Inhibitory Concentration, P. aeruginosa ATCC 35151
How it was run: as §1

E. coli 901C = assay: Broth microdilution MIC in CAMHB; type: cell-based; details: Escherichia coli; E. coli 901C (hyper-permeable); MHB; read-out: Minimum Inhibitory Concentration, E. coli 901C
How it was run: as §1

P. aeruginosa PBP3 = target: T1, P. aeruginosa PBP3 (Pseudomonas aeruginosa, UniProt G3XD46); assay: Bocillin-FL fluorescence polarization competition binding assay, P. aeruginosa PBP3; details: fluorescence polarization competition binding assay using Bocillin-FL
T1 construct: made in house
T1 sequence (G3XD46 whole entry): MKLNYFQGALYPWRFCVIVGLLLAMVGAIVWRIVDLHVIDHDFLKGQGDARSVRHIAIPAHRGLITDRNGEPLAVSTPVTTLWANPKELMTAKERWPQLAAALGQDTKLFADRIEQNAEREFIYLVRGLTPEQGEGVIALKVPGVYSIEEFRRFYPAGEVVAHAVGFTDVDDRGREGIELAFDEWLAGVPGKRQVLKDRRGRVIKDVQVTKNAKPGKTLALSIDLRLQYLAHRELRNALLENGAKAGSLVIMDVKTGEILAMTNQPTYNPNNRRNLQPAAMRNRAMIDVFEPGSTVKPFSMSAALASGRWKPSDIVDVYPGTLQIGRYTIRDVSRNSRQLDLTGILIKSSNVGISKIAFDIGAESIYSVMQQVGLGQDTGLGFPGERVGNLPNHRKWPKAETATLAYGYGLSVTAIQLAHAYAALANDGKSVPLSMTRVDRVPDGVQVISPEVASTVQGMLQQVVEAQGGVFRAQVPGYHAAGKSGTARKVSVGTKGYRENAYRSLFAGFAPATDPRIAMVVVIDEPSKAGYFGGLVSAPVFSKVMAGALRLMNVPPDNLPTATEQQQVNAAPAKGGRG
How it was run: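 Inhibitor competition with Bocillin-FL for P. aeruginosa PBP3 was followed by fluorescence polarization on a Cytation3 (BioTek) reader, using g-factor 0.96, 490 nm excitation and 520 nm emission. The enzyme was at 0.75 μM and the probe at 0.1 μM in Hepes/NaCl/glycerol buffer, 80 μl per well. FP was recorded immediately after probe addition for up to 60 minutes. Potency was expressed as EC50, the concentration that reduces bound probe by 50%.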

SMILES	MIC [1] [µg/mL]	MIC (E. coli D22) [µg/mL]	MIC (P. aeruginosa ATCC 35151) [µg/mL]	MIC (E. coli 901C) [µg/mL]	P. aeruginosa PBP3 Potency (P. aeruginosa PBP3)
CCN1CCN(C(=O)NC(C(=O)N[C@H]2Cc3cccc(C(=O)O)c3OB2O)c2c(F)cc(NC(=O)NC)cc2F)C(=O)C1=O (stereo partly drawn) [Example 213, (3R)-3-(2-(2,6-difluoro-4-(3-methylureido)phenyl)-2-(4-ethyl-2,3-dioxopiperazine-1-carboxamido)acetamido)-2-hydroxy-3,4-dihydro-2H-benzo[e][1,2]oxaborinine-8-carboxylic acid]	> 128	2 to 4 (≈ 3.24 to 6.49 µM)	0.5 to 1 (≈ 0.811 to 1.62 µM)	< 0.25	D (D represents a potency <10 μM)
NCCN1CCN(C(=O)N[C@H](C(=O)N[C@H]2Cc3cccc(C(=O)O)c3OB2O)c2c(F)cccc2Cl)C(=O)C1=O (single isomer, unassigned) [Example 206]	> 128	> 128	32 to 64 (≈ 55.6 to 111 µM)	32 to 64 (≈ 55.6 to 111 µM)	B (B represents a potency between 30 μM and 500 μM inclusive)
O=C(O)c1cccc2c1OB(O)[C@@H](NC(=O)C(NC(=O)N1CCN(C3CNC3)C(=O)C1=O)c1c(F)cc(O)cc1F)C2 (stereo partly drawn) [Example 212, (3R)-3-(2-(4-(azetidin-3-yl)-2,3-dioxopiperazine-1-carboxamido)-2-(2,6-difluoro-4-hydroxyphenyl)acetamido)-2-hydroxy-3,4-dihydro-2H-benzo[e][1,2]oxaborinine-8-carboxylic acid]	32 to 64 (≈ 54.5 to 109 µM)	2 to 4 (≈ 3.41 to 6.81 µM)	0.5 to 1 (≈ 0.851 to 1.7 µM)	0.5 to 1 (≈ 0.851 to 1.7 µM)	D (D represents a potency <10 μM)
CCN1CCN(C(=O)N[C@@H](C(=O)N[C@H]2Cc3ccc(F)c(C(=O)O)c3OB2O)c2c(Cl)cc(O)c(O)c2F)C(=O)C1=O (single isomer, unassigned) [Example 207]					D (D represents a potency <10 μM)
CCN1CCN(C(=O)NC(C(=O)N[C@H]2Cc3cccc(C(=O)O)c3OB2O)c2cc([N+](=O)[O-])c(O)cc2F)C(=O)C1=O (stereo partly drawn) [Example 184, (3R)-3-(2-(4-ethyl-2,3-dioxopiperazine-1-carboxamido)-2-(2-fluoro-4-hydroxy-5-nitrophenyl)acetamido)-2-hydroxy-3,4-dihydro-2H-benzo[e][1,2]oxaborinine-8-carboxylic acid]	> 128	2 to 4 (≈ 3.41 to 6.81 µM)	0.5 to 1 (≈ 0.851 to 1.7 µM)	< 0.25	D (D represents a potency <10 μM)
CCN1CCN(C(=O)N[C@H](C(=O)N[C@H]2Cc3cccc(C(=O)O)c3OB2O)c2ccc(C(=O)O)c(F)c2Cl)C(=O)C1=O (single isomer, unassigned) [Example 202]	> 128	8 to 16 (≈ 13.2 to 26.5 µM)	2 to 4 (≈ 3.31 to 6.61 µM)	0.5 to 1 (≈ 0.827 to 1.65 µM)	C (C represents a potency between 10 and 30 μM)
O=C(NCCCN1CCN(C(=O)NC(C(=O)N[C@H]2Cc3ccc(F)c(C(=O)O)c3OB2O)c2ncc(O)cc2F)C(=O)C1=O)c1ccc(O)c(O)c1Cl (stereo partly drawn) [Example 3, (3R)-3-(2-(4-(3-(2-chloro-3,4-dihydroxybenzamido)propyl)-2,3-dioxopiperazine-1-carboxamido)-2-(3-fluoro-5-hydroxypyridin-2-yl)acetamido)-7-fluoro-2-hydroxy-3,4-dihydro-2H-benzo[e][1,2]oxaborinine-8-carboxylic acid]	32 to 64 (≈ 42.1 to 84.1 µM)	32 to 64 (≈ 42.1 to 84.1 µM)		8 to 16 (≈ 10.5 to 21 µM)	D (D represents a potency <10 μM)
O=C(NCCCN1CCN(C(=O)NC(C(=O)N[C@H]2Cc3cccc(C(=O)O)c3OB2O)c2ncc(O)cc2F)C(=O)C1=O)c1ccc(O)c(O)c1Cl (stereo partly drawn) [Example 1, (3R)-3-(2-(4-(3-(2-chloro-3,4-dihydroxybenzamido)propyl)-2,3-dioxopiperazine-1-carboxamido)-2-(3-fluoro-5-hydroxypyridin-2-yl)acetamido)-2-hydroxy-3,4-dihydro-2H-benzo[e][1,2]oxaborinine-8-carboxylic acid]	32 to 64 (≈ 43.1 to 86.2 µM)	8 to 16 (≈ 10.8 to 21.5 µM)		8 to 16 (≈ 10.8 to 21.5 µM)	D (D represents a potency <10 μM)
CCN1CCN(C(=O)N[C@@H](C(=O)N[C@H]2Cc3ccc(F)c(C(=O)O)c3OB2O)c2ccc(O)c(O)c2)C(=O)C1=O [Example 211, (R)-3-((R)-2-(3,4-dihydroxyphenyl)-2-(4-ethyl-2,3-dioxopiperazine-1-carboxamido)acetamido)-7-fluoro-2-hydroxy-3,4-dihydro-2H-benzo[e][1,2]oxaborinine-8-carboxylic acid]					D (D represents a potency <10 μM)
CCN1CCN(C(=O)N[C@@H](C(=O)N[C@H]2Cc3cc(Cl)c(F)c(C(=O)O)c3OB2O)c2c(F)cc(O)c(O)c2Cl)C(=O)C1=O [Example 191, (R)-6-chloro-3-((R)-2-(2-chloro-6-fluoro-3,4-dihydroxyphenyl)-2-(4-ethyl-2,3-dioxopiperazine-1-carboxamido)acetamido)-7-fluoro-2-hydroxy-3,4-dihydro-2H-benzo[e][1,2]oxaborinine-8-carboxylic acid]					D (D represents a potency <10 μM)
Nc1nc(/C(=N/OC[C@H](NC(=O)c2ccc(O)c(O)c2Cl)C(=O)O)C(=O)N[C@H]2Cc3cccc(C(=O)O)c3OB2O)cs1 [Example 6, (R)-3-((Z)-2-(2-aminothiazol-4-yl)-2-(((S)-2-carboxy-2-(2-chloro-3,4-dihydroxybenzamido)ethoxy)imino)acetamido)-2-hydroxy-3,4-dihydro-2H-benzo[e][1,2]oxaborinine-8-carboxylic acid]					D (D represents a potency <10 μM)
CS(=O)(=O)N1CCN(C(=O)NC(C(=O)N[C@H]2Cc3ccc(F)c(C(=O)O)c3OB2O)c2c(Cl)cc(O)c(O)c2F)C1=O (stereo partly drawn) [Example 208, (3R)-3-(2-(6-chloro-2-fluoro-3,4-dihydroxyphenyl)-2-(3-(methylsulfonyl)-2-oxoimidazolidine-1-carboxamido)acetamido)-7-fluoro-2-hydroxy-3,4-dihydro-2H-benzo[e][1,2]oxaborinine-8-carboxylic acid]					D (D represents a potency <10 μM)
O=C(NCCN1CCN(C(=O)NC(C(=O)N[C@H]2Cc3ccc(F)c(C(=O)O)c3OB2O)c2ncc(O)cc2F)C(=O)C1=O)c1c(F)cc(O)c(O)c1Cl (stereo partly drawn) [Example 5, (3R)-3-(2-(4-(2-(2-chloro-6-fluoro-3,4-dihydroxybenzamido)ethyl)-2,3-dioxopiperazine-1-carboxamido)-2-(3-fluoro-5-hydroxypyridin-2-yl)acetamido)-7-fluoro-2-hydroxy-3,4-dihydro-2H-benzo[e][1,2]oxaborinine-8-carboxylic acid]					D (D represents a potency <10 μM)
Nc1nc(C(NC(=O)N2CCN(CCNC(=O)c3ccc(O)c(O)c3Cl)C(=O)C2=O)C(=O)N[C@H]2Cc3ccc(F)c(C(=O)O)c3OB2O)c(F)s1 (stereo partly drawn) [Example 4, (3R)-3-(2-(2-amino-5-fluorothiazol-4-yl)-2-(4-(2-(2-chloro-3,4-dihydroxybenzamido)ethyl)-2,3-dioxopiperazine-1-carboxamido)acetamido)-7-fluoro-2-hydroxy-3,4-dihydro-2H-benzo[e][1,2]oxaborinine-8-carboxylic acid]					D (D represents a potency <10 μM)
NCCN1CCN(C(=O)N[C@@H](C(=O)N[C@H]2Cc3ccc(F)c(C(=O)O)c3OB2O)c2c(F)c(F)c(O)c(O)c2Cl)C(=O)C1=O [Example 226, (R)-3-((R)-2-(4-(2-aminoethyl)-2,3-dioxopiperazine-1-carboxamido)-2-(2-chloro-5,6-difluoro-3,4-dihydroxyphenyl)acetamido)-7-fluoro-2-hydroxy-3,4-dihydro-2H-benzo[e][1,2]oxaborinine-8-carboxylic acid]					B (B represents a potency between 30 μM and 500 μM inclusive)
C[C@H]1CN(CCNC(=O)c2ccc(O)c(O)c2Cl)C(=O)C(=O)N1C(=O)NC(C(=O)N[C@H]1Cc2cccc(C(=O)O)c2OB1O)c1ncc(O)cc1F (stereo partly drawn) [Example 2, (3R)-3-(2-((S)-4-(2-(2-chloro-3,4-dihydroxybenzamido)ethyl)-6-methyl-2,3-dioxopiperazine-1-carboxamido)-2-(3-fluoro-5-hydroxypyridin-2-yl)acetamido)-2-hydroxy-3,4-dihydro-2H-benzo[e][1,2]oxaborinine-8-carboxylic acid]	8 to 16 (≈ 10.8 to 21.5 µM)	2 to 4 (≈ 2.69 to 5.38 µM)		0.5 to 1 (≈ 0.673 to 1.35 µM)	D (D represents a potency <10 μM)
NCCCN1CCN(C(=O)N[C@@H](C(=O)N[C@H]2Cc3cc(Cl)c(F)c(C(=O)O)c3OB2O)c2c(F)cc(O)c(O)c2Cl)C(=O)C1=O [Example 190, (R)-3-((R)-2-(4-(3-aminopropyl)-2,3-dioxopiperazine-1-carboxamido)-2-(2-chloro-6-fluoro-3,4-dihydroxyphenyl)acetamido)-6-chloro-7-fluoro-2-hydroxy-3,4-dihydro-2H-benzo[e][1,2]oxaborinine-8-carboxylic acid]					D (D represents a potency <10 μM)
CCN1CCN(C(=O)N[C@@H](C(=O)N[C@H]2Cc3cccc(C(=O)O)c3OB2O)c2c(O)cc(O)cc2F)C(=O)C1=O (single isomer, unassigned) [Example 182]	32 to 64 (≈ 57.3 to 115 µM)	0.5 to 1 (≈ 0.896 to 1.79 µM)	2 to 4 (≈ 3.58 to 7.16 µM)	< 0.25	
